Source: article PMC9145754, “Novel Soloxolone Amides as Potent Anti-Glioblastoma Candidates: Design, Synthesis, In Silico Analysis and Biological Activities In Vitro and In Vivo” (Pharmaceuticals, 2022)

Tests used:
[1] = tested on: U118 cells; assay: Colony formation assay, U118; assay type: cell-based, human; conditions: 14 days
Protocol: To evaluate the antitumor potential of 12 more comprehensively, its effects at non-toxic concentrations (25–500 nM; cell survival of ≥90%) on a range of metastatic-related processes in glioblastoma cells were studied. Firstly, we investigated the inhibitory activity of 12 on the clonogenic capacity of tumor cells in vitro, which reflects their ability to form colonies from single cells which characterizes the stemness of tumor cells and plays a crucial role in metastasis.
U118 cells were seeded in 96-well plates in six replicates at a density of 200 cells/well and treated with 12 at 25–500 nM for 14 days under standard conditions. The culture media were replaced with fresh media containing corresponding concentrations of 12 every 6 days. After the incubation time, cell colonies were fixed with 4% paraformaldehyde, stained with crystal violet dye (0.1% w/v) and photographed using the iBright 1500 Imaging System (Invitrogen, USA). The percentage of area covered by cell colonies was computed using the ColonyArea ImageJ plugin [95].

[2] = tested on: U87 cells; assay: Cytotoxicity of 12 with N-acetyl-L-cysteine (MTT); assay type: cell-based; conditions: U87, 12 at 4 µM with NAC, 24 h
Protocol: To check the ability of 12 to influence ROS production, U87 cells treated with 12 (4 µM) for 24 h were stained with dichlorodihydrofluorescein diacetate (DCFDA) and analyzed by flow cytometry. […] Since ROS play an important role in the regulation of cell death, we further examined whether ROS production mediated the cytotoxicity of 12 with respect to glioblastoma cells.
In order to understand whether ROS play a crucial role in compound 12-induced cell death, U87 cells were plated in quadruplicate in 96-well plates at a density of 1 × 10^4 cells/well and incubated in the presence of 12 at 4 µM and N-Acetyl-L-cysteine (NAC) at […] for 24 h under standard conditions. Then, cell viability was measured using an MTT test.

[3] = tested on: brain tumor cells; assay: MTT cytotoxicity, values summarised over brain tumor cells; assay type: cell-based; conditions: range over U87, U118, KELLY, Neuro2a; read-out: IC50 against brain malignant cells
Protocol: To evaluate the antitumor activity of the synthesized soloxolone amides in brain tumor cells, the cytotoxicity of compounds 4–12, predicted as BBB-permeable (Figure 3), was further analyzed in human glioblastoma U87 and U118 cells, as well as human neuroblastoma KELLY and murine neuroblastoma Neuro2a cells.
(§1) The cells in the exponential growth phase were seeded in quadruplicate in 96-well plates at a density of 1 × 10^4 cells/well for HeLa, U87, U118, KELLY and Neuro2a cells; 1.5 × 10^4 cells/well for HuTu-80 cells; 2 × 10^4 cells/well for B16 cells; and 7 × 10^3 cells/well for hFF3 fibroblasts. Cells were incubated under standard conditions overnight followed by their treatment with the investigated compounds (1–20 µM) for 24 h. Then, 10 µL of MTT solution was added to the cells to a final concentration of 0.5 mg/mL and plates were placed under standard conditions for 3 h followed by an aspiration of MTT-containing medium and a dissolution of formazan crystals with 100 µL of DMSO. The absorbance of each well was read at test and reference wavelengths of 570 and 620 nm, respectively, on a Multiscan RC plate reader (Thermo LabSystems, Helsinki, Finland).

[4] = tested on: U87 cells; assay: Mitochondrial mass, MitoTracker Green; assay type: cell-based, human; conditions: 24 h
Protocol: Next, to evaluate whether the observed compound 12-driven disturbance of mitochondrial homeostasis in glioblastoma cells involved an alteration in mitochondrial abundance, U87 cells were treated with 12 at 2 and 4 µM for 24 h and stained with MitoTracker Green, a fluorescent probe accumulated in mitochondria ΔψM-independently. […] The obtained results agree well with published data: Yang et al. and Gibellini et al. found a similar increase in mitochondrial mass in RAW264.7 macrophages and colon carcinoma RKO cells treated with CDDO-Im and CDDO, respectively. We suppose that the observed triterpenoid-induced mitogenesis in glioblastoma cells is mediated by compensatory mechanisms in response to compound 12-triggered mitochondrial stress and that it plays a cytoprotective role—high mitochondrial mass is known to be highly correlated with chemotherapy-driven redundant production of reactive oxygen species (ROS) in tumor cells and to underlie their chemoresistance.
U87 cells were seeded at a density of 2.8 × 10^5 cells/well in 6-well plates and incubated overnight, followed by their treatment with 12 at 2 and 4 µM for 24 h. […] Thereafter, the cells were washed twice with PBS and analyzed by flow cytometry. In total, 10,000 events were recorded for each sample.

[5] = tested on: B16 cells; assay: MTT cytotoxicity assay, B16; assay type: cell-based, murine; conditions: Mus musculus, 24 h, read-out: IC50, Melanoma, B16
Protocol: In the first step of the study, we analyzed the cytotoxicity of novel soloxolone derivatives 1–12 in a panel of tumor cells, including human cervical carcinoma HeLa, human duodenal carcinoma HuTu-80 and murine melanoma B16 cells, as well as human non-transformed hFF3 foreskin fibroblasts. The cells were treated with derivatives for 24 h and cell viability was evaluated by 3-(4,5-dimethylthiazol-2-yl)-2,5-diphenyltetrazolium bromide (MTT) assay. SM was used as the reference compound.
as §1

[6] = tested on: U87 cells; assay: Mitochondrial membrane potential/apoptosis, MitoTracker Red and Annexin V; assay type: cell-based, human; conditions: U87, 12 at 4 µM, control 5.7%
Protocol: In order to doublecheck the ΔψM-targeted effect of 12 and to assess the correlation between dissipation of ΔψM and induction of apoptosis in triterpenoid-treated glioblastoma cells, U87 cells were incubated with 12 at 4 µM for 6–24 h followed by their staining with a mix of MitoTracker Red, a fluorescent dye accumulated within mitochondria depending on their ΔψM, and fluorophore-conjugated annexin V, used to visualize apoptotic cells.
[…] cells plated in 6-well plates were treated with 12 at 4 μM for 6, 18 and 24 h and stained using a Mitochondrial Membrane Potential/Annexin V Apoptsis Kit (Molecular Probes, USA) according to the manufacturer’s instructions. Briefly, harvested cells were incubated in Annexin-binding buffer containing MitoTracker Red at 40 nM for 30 min under standard conditions. After that, the cells were washed with PBS, resuspended in Annexin-binding buffer containing 5 µL of Annexin V-Alexa Fluor 488 and incubated at room temperature for 15 min. After the incubation time, the cells were analyzed by flow cytometry. For each sample, 10,000 events were acquired.

## CC1(C)C(=O)C(C#N)=C[C@]2(C)C3=CC(=O)[C@@H]4[C@@H]5C[C@@](C)(C(=O)NCCc6c[nH]c7ccccc67)CC[C@]5(C)CC[C@@]4(C)[C@]3(C)CC[C@@H]12 [compound 12]
[1]; U118, 12 at 200 nM
  reduction in the area of cell colonies compared to the control: 1.4 fold
[1]; U118, 12 at 500 nM
  reduction in the area of cell colonies compared to the control: 2 fold
[2]
  effect of NAC on cytotoxic effect of 12: complete abrogation of the cytotoxic effect
[3]
  IC50: 1.6 to 1.9 µM
[4]; U87, 12 at 2 µM
  induction of mitochondrial biogenesis: statistically insignificant
[4]; U87, 12 at 4 µM
  increase of mitochondrial mass compared to the control: 1.6 fold
[5]
  IC50: 1.5 ± 0.2 µM
[6]; 6 h
  percentage of apoptotic cells with dissipated ΔψM: 12.2%
[6]; 18 h
  percentage of apoptotic cells with dissipated ΔψM: 18.7%
[6]; 24 h
  percentage of apoptotic cells with dissipated ΔψM: 28%
